Experimental data reported in patent US20230348364A1, “ISOTOPIC THYROMIMETIC COMPOUNDS” (Autobahn Therapeutics, Inc., priority 2020, published 2023).

How the values were obtained:
TRβ = molecular target: T1, TRβ (Homo sapiens, UniProt P10828); assay: Transactivation assay (DR4 TRE luciferase reporter, HEK 293), TRβ; assay type: cell-based; conditions: HEK 293 transfected with full length TRβ-CMV, 24 hours, firefly luciferase normalized to Renilla
T1 construct: TR expression vector (full length TRα-CMV or TRβ-CMV); expressed in transfected cells; host or cells: HEK 293
T1 sequence (P10828 1-461): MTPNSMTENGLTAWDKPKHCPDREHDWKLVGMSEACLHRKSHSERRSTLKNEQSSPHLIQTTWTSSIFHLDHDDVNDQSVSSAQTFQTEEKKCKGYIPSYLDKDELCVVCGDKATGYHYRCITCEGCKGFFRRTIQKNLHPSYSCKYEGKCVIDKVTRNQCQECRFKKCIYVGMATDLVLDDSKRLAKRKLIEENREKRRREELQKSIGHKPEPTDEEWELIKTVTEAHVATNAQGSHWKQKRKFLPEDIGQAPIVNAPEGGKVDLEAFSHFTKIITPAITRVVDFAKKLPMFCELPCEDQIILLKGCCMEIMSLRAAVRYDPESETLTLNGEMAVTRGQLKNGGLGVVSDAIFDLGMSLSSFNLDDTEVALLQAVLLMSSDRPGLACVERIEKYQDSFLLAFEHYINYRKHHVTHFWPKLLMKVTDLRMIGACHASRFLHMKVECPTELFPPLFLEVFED
Procedure: (§1) The cells were trypsinized with 0.25% trypsin, then diluted to 5×10^5 cells/mL with high glucose DMEM. […] 1.5 µg of TR expression vector (full length TRα-CMV or TRβ-CMV), 1.5 µg of a reporter plasmid containing a DR4 thyroid hormone response element (TRE) direct repeat spaced by four nucleotides (AGGTCAcaggAGGTCA) cloned upstream of a minimal thymidine kinase promoter linked to a firefly luciferase coding sequence, and 0.75 µg of a pRL-SV40 constitutive Renilla luciferase reporter plasmid were diluted into 540 µl of OptiMEM. 27 µL of lipofectamine reagent was diluted into 540 µL of OptiMEM. The plasmid and lipofectamine dilutions were combined then incubated at RT for 10 min. The mixture was then diluted into 4.29 mL of OptiMEM. Plates were washed with 100 µL of phosphate buffered saline (PBS) at pH 7.2 without magnesium or calcium chloride per well. Transfection mixtures were added at 50 µL per well, then incubated at 37° C. for 4 hours. Modified DME/F-12 Ham’s medium without phenol red containing 15 mM HEPES and bicarbonate, 5 mM L-glutamine, charcoal-stripped FBS, 50 units/mL penicillin and 50 µg/mL streptomycin was added at 50 µL per well, then the plates were incubated at 37° C. for 20 hours. Drug stocks were made at 10 mM in DMSO, then serially diluted to 1X concentrations in DME/F-12 Ham’s. Plates were washed with 100 µL of PBS (pH 7.2) per well. 100 µL of each drug stock was added to the wells in triplicate, and then the plates are incubated at 37° C. for 24 hours.
(§2) Cells were assayed for luciferase activity using the Promega DualGlo kit. 50 µl of Luciferase Reagent was added per well, the plate was rocked for 15 min at RT, and then the plate was read for firefly luciferase activity. A 50 µl volume of Stop & Glo Reagent was added per well, then the plate was read for Renilla luciferase activity.

TRα = molecular target: T2, TRα (Homo sapiens, UniProt P10827); assay: Transactivation assay (DR4 TRE luciferase reporter, HEK 293), TRα; assay type: cell-based; conditions: HEK 293 transfected with full length TRα-CMV, 24 hours, firefly luciferase normalized to Renilla
T2 construct: TR expression vector (full length TRα-CMV or TRβ-CMV); expressed in transfected cells; host or cells: HEK 293
T2 sequence (P10827 1-410 isoform P10827-2): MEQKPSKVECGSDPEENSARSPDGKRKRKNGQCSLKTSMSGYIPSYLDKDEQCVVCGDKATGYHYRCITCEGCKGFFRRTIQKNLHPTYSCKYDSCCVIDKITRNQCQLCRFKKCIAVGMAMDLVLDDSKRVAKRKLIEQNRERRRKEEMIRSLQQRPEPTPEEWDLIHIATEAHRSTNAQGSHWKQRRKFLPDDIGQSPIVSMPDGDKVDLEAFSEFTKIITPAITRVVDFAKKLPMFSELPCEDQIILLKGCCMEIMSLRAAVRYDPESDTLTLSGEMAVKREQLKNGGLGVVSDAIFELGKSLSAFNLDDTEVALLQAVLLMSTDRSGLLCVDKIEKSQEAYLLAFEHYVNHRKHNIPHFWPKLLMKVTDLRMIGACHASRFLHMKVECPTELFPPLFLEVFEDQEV
Procedure: as §1, §2

[1] = molecular target: T3, Purified recombinant human FAAH (rhFAAH) (Homo sapiens, UniProt O00519); assay: FAAH substrate evaluation (formation of acid metabolite); assay type: biochemical; conditions: 0.5 ng/µL rhFAAH, 1 µM test compound, Tris-EDTA buffer pH 8.0, room temperature, 0-60 minutes
T3 construct: purchased Cayman Chemical (Ann Arbor, MI, USA)
T3 sequence (O00519 1-579): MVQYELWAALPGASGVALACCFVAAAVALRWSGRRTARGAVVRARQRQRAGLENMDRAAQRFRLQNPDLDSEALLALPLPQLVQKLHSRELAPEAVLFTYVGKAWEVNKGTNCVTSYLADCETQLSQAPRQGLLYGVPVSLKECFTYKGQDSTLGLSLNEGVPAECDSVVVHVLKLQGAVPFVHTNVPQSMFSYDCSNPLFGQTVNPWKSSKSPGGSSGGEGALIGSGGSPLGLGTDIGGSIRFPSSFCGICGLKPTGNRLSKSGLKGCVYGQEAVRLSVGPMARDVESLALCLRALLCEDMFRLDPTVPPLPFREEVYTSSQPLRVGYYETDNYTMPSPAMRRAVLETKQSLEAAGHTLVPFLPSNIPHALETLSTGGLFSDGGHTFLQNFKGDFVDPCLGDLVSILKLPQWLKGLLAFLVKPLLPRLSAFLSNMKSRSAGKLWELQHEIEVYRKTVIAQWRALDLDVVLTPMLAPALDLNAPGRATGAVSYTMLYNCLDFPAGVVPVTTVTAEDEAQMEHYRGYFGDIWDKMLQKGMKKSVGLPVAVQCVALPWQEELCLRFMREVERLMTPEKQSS
Procedure: Purified recombinant human FAAH (rhFAAH) was purchased from Cayman Chemical (Ann Arbor, MI, USA). The total volume for each incubation was 400 µL containing a final 0.5 ng/µL rhFAAH, 1 µM test compound, 1.25% ethanol or 1 µM PF-3845 (FAAH inhibitor), and 0.1% bovine serum albumin in Tris-EDTA buffer at pH 8.0). The positive control was LL-341001. The incubation was conducted at the room temperature. At 0, 5, 15, 30 and 60 minutes, an aliquot of 30 µL reaction mixtures was removed and mixed with 300 µL acetonitrile containing 5 ng/mL terfenadine and 10 ng/mL tolbutamide as internal standards to quench the reaction. The resulting mixture was centrifuged at 4000 rpm, 4° C. for 15 minutes, and 100 µL supernatant was ready for LC-MS/MS analysis to measure the formation of acid metabolite.
Acquity Ultra Performance LC system from Waters was used for sample analysis. The chromatography was performed on a reverse phase Kinetex 2.6 µm C18 column, 2.1 × 30 mm, 100 Å. The mobile phase A comprised of 0.1% formic acid in water and mobile phase B comprised of 0.1% formic acid in acetonitrile with a 2-min run time at the flow rate of 0.8 mL/min for the acid metabolite from positive control or a 1.5 min run time at the flow rate of 0.9 mL/min for the acid metabolite of test compounds. The mass spectrometer (API-5500 and API Q Trap 4000 Applied Biosystems/MDS SCIEX Instruments, Framingham, MA, USA) was operated under ESI positive or negative ion MRM mode.
The formation of acid metabolite was monitored and quantified using one calibration point of 1 µM. The observed rate constant (ke) for the acid metabolite formation was calculated by plotting the metabolite concentration versus time of incubation with the slope being ke and is shown in Table 1.

| EC50 (TRβ) [nM] | EC50 (TRα) [nM] | Molecule | ke (observed rate constant for the acid metabolite formation) [1] |
| --- | --- | --- | --- |
| 1 to 1000 | 1 to 1000 | 2-(3,5-dichloro-4-(hydroxy-3-(propan-2-yl-d7)benzyl)phenoxy)acetic Acid [Compound 18] |  |
|  |  | [2H]C([2H])([2H])C([2H])(c1cc(Cc2c(Cl)cc(OCC(=O)NC)cc2Cl)ccc1O)C([2H])([2H])[2H] [Compound 1, 2-(3,5-dichloro-4-(4-hydroxy-3-(propan-2-yl-d7)benzyl)phenoxy)-N-Methylacetamide] | A (A = ke is less than 3.0 and more than or equal to 0.1.) |
| 1 to 1000 | 1 to 1000 | [2H]C([2H])(c1ccc(O)c(C(C)C)c1)c1c(Cl)cc(OCC(=O)O)cc1Cl [Compound 4, 2-(3,5-dichloro-4-((4-hydroxy-3-isopropylphenyl)methyl-d2)phenoxy)acetic Acid] |  |
|  |  | [2H]C([2H])(c1ccc(O)c(C(C)C)c1)c1c(Cl)cc(OCC(N)=O)cc1Cl [Compound 5, 2-(3,5-dichloro-4-((4-hydroxy-3-isopropylphenyl)methyl-d2)phenoxy)acetamide] | A (A = ke is less than 3.0 and more than or equal to 0.1.) |
| 1 to 1000 | 1 to 1000 | [2H]c1c(Cl)c(Cc2ccc(O)c(C(C)C)c2)c(Cl)c([2H])c1OCC(=O)O [Compound 6, 2-(3,5-dichloro-4-(4-hydroxy-3-isopropylbenzyl)phenoxy-2,6-d2)acetic Acid] |  |
|  |  | [2H]c1c(Cl)c(Cc2ccc(O)c(C(C)C)c2)c(Cl)c([2H])c1OCC(N)=O [Compound 7, 2-(3,5-dichloro-4-(4-hydroxy-3-isopropylbenzyl)phenoxy-2,6-d2)acetamide] | A (A = ke is less than 3.0 and more than or equal to 0.1.) |
| 1 to 1000 | 1 to 1000 | [2H]C([2H])(Oc1cc(Cl)c(Cc2ccc(O)c(C(C)C)c2)c(Cl)c1)C(=O)O [Compound 8, 2-(3,5-dichloro-4-(4-hydroxy-3-isopropylbenzyl)phenoxy)acetic-2,2-d2 Acid] |  |
|  |  | [2H]C([2H])(Oc1cc(Cl)c(Cc2ccc(O)c(C(C)C)c2)c(Cl)c1)C(N)=O [Compound 9, 2-(3,5-dichloro-4-(4-hydroxy-3-isopropylbenzyl)phenoxy)acetamide-2,2-d2] | A (A = ke is less than 3.0 and more than or equal to 0.1.) |
|  |  | [2H]C([2H])(c1ccc(O)c(C(C)C)c1)c1c(C)cc(OCC(=O)NC)cc1C [Compound 13, 2-(4-((4-hydroxy-3-isopropylphenyl)methyl-d2)-3,5-dimethylphenoxy)-N-methylacetamide] | A (A = ke is less than 3.0 and more than or equal to 0.1.) |
|  |  | [2H]C([2H])(Oc1cc(C)c(Cc2ccc(O)c(C(C)C)c2)c(C)c1)C(=O)NC [Compound 17, 2-(4-(4-hydroxy-3-isopropylbenzyl)-3,5-dimethylphenoxy)-N-methylacetamide-2,2-d2] | A (A = ke is less than 3.0 and more than or equal to 0.1.) |
| 1 to 1000 | 1 to 1000 | [2H]C([2H])([2H])C([2H])(c1cc(Cc2c(Cl)cc(OCC(=O)O)cc2Cl)ccc1O)C([2H])([2H])[2H] [Compound A-15] |  |
